Tested on: 454973-116-R2-J3-PDC spheroids, percent test/control viability
Assay: Anticancer human tumor 454973-116-R2-J3-PDC patient-derived pancreatic carcinoma cell line growth inhibition [CLK]
Settings: spheroids with HUVEC and MSC; for IC50: curve of first compound; for viability, T/C: stronger effect = lower value
Procedure, shortened: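 Patient-derived tumor cells grown as complex spheroids with HUVEC endothelial cells and mesenchymal stem cells, treated with drug combinations. Concentrations descend in half-log steps from near clinical Cmax, or from 10 microM if Cmax unknown.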

[1] = second compound 0.0316 µM, first compound 0.0316 µM
[2] = second compound 0.0316 µM, first compound 0.1 µM
[3] = second compound 0.0316 µM, first compound 0.316 µM
[4] = second compound 0.0316 µM, first compound 1 µM
[5] = second compound 0.0316 µM, first compound 3.16 µM
[6] = second compound 0.0316 µM, first compound 10 µM
[7] = second compound 0.1 µM, first compound 0.0316 µM
[8] = second compound 0.1 µM, first compound 0.1 µM
[9] = second compound 0.1 µM, first compound 0.316 µM
[10] = second compound 0.1 µM, first compound 1 µM
[11] = second compound 0.1 µM, first compound 3.16 µM
[12] = second compound 0.1 µM, first compound 10 µM
[13] = second compound 0.316 µM, first compound 0.0316 µM
[14] = second compound 0.316 µM, first compound 0.1 µM
[15] = second compound 0.316 µM, first compound 0.316 µM
[16] = second compound 0.316 µM, first compound 1 µM
[17] = second compound 0.316 µM, first compound 3.16 µM
[18] = second compound 0.316 µM, first compound 10 µM
[19] = second compound 1 µM, first compound 0.0316 µM
[20] = second compound 1 µM, first compound 0.1 µM
[21] = second compound 1 µM, first compound 0.316 µM
[22] = second compound 1 µM, first compound 1 µM
[23] = second compound 1 µM, first compound 3.16 µM
[24] = second compound 1 µM, first compound 10 µM
[25] = second compound 3.16 µM, first compound 0.0316 µM
[26] = second compound 3.16 µM, first compound 0.1 µM
[27] = second compound 3.16 µM, first compound 0.316 µM
[28] = second compound 3.16 µM, first compound 1 µM
[29] = second compound 3.16 µM, first compound 3.16 µM
[30] = second compound 3.16 µM, first compound 10 µM
[31] = second compound 10 µM, first compound 0.0316 µM
[32] = second compound 10 µM, first compound 0.1 µM
[33] = second compound 10 µM, first compound 0.316 µM
[34] = second compound 10 µM, first compound 1 µM
[35] = second compound 10 µM, first compound 3.16 µM
[36] = second compound 10 µM, first compound 10 µM
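Note: spheroids exposed to compounds for 7 days before readout.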

CC(C)CC(NC(=O)C(Cc1ccccc1)NC(=O)c1cnccn1)B(O)O (stereo unspecified) + CN1CCN(c2cc(C(=O)Nc3cc4cc(-c5cnn(C)c5)ccc4cn3)ccn2)CC1
IC50 (second compound 0.0316 µM): 0.00331 µM
IC50 (second compound 0.1 µM): 0.0015 µM
IC50 (second compound 0.316 µM): < 0.000949 µM
IC50 (second compound 1 µM): < 0.000949 µM
IC50 (second compound 3.16 µM): < 0.000949 µM
IC50 (second compound 10 µM): < 0.000949 µM
viability, T/C (second compound 0.0316 µM, first compound 0.000949 µM): 94.4%
viability, T/C (second compound 0.0316 µM, first compound 0.003 µM): 54.7%
viability, T/C (second compound 0.0316 µM, first compound 0.00949 µM): 0.27%
viability, T/C (second compound 0.0316 µM, first compound 0.03 µM): 0.3%
viability, T/C (second compound 0.0316 µM, first compound 0.0949 µM): 0.17%
viability, T/C (second compound 0.0316 µM, first compound 0.3 µM): 0.14%
viability, T/C (second compound 0.1 µM, first compound 0.000949 µM): 73.7%
viability, T/C (second compound 0.1 µM, first compound 0.003 µM): 14.8%
viability, T/C (second compound 0.1 µM, first compound 0.00949 µM): 0.41%
viability, T/C (second compound 0.1 µM, first compound 0.03 µM): 0.19%
viability, T/C (second compound 0.1 µM, first compound 0.0949 µM): 0.16%
viability, T/C (second compound 0.1 µM, first compound 0.3 µM): 0.14%
viability, T/C (second compound 0.316 µM, first compound 0.000949 µM): 2.21%
viability, T/C (second compound 0.316 µM, first compound 0.003 µM): 0.7%
viability, T/C (second compound 0.316 µM, first compound 0.00949 µM): 1.43%
viability, T/C (second compound 0.316 µM, first compound 0.03 µM): 0.12%
viability, T/C (second compound 0.316 µM, first compound 0.0949 µM): 0.11%
viability, T/C (second compound 0.316 µM, first compound 0.3 µM): 0.09%
viability, T/C (second compound 1 µM, first compound 0.000949 µM): 0.12%
viability, T/C (second compound 1 µM, first compound 0.003 µM): 0.19%
viability, T/C (second compound 1 µM, first compound 0.00949 µM): 0.09%
viability, T/C (second compound 1 µM, first compound 0.03 µM): 0.05%
viability, T/C (second compound 1 µM, first compound 0.0949 µM): 0.07%
viability, T/C (second compound 1 µM, first compound 0.3 µM): 0.07%
viability, T/C (second compound 3.16 µM, first compound 0.000949 µM): 0.16%
viability, T/C (second compound 3.16 µM, first compound 0.003 µM): 1.02%
viability, T/C (second compound 3.16 µM, first compound 0.00949 µM): 0.07%
viability, T/C (second compound 3.16 µM, first compound 0.03 µM): 0.05%
viability, T/C (second compound 3.16 µM, first compound 0.0949 µM): 0.6%
viability, T/C (second compound 3.16 µM, first compound 0.3 µM): 0.79%
viability, T/C (second compound 10 µM, first compound 0.000949 µM): 0.09%
viability, T/C (second compound 10 µM, first compound 0.003 µM): 0.13%
viability, T/C (second compound 10 µM, first compound 0.00949 µM): 0.88%
viability, T/C (second compound 10 µM, first compound 0.03 µM): 0.09%
viability, T/C (second compound 10 µM, first compound 0.0949 µM): 0.16%
viability, T/C (second compound 10 µM, first compound 0.3 µM): 0.17%

CC1(C)CCC(CN2CCN(c3ccc(C(=O)NS(=O)(=O)c4ccc(NCC5CCOCC5)c([N+](=O)[O-])c4)c(Oc4cnc5[nH]ccc5c4)c3)CC2)=C(c2ccc(Cl)cc2)C1 + CN1CCN(c2cc(C(=O)Nc3cc4cc(-c5cnn(C)c5)ccc4cn3)ccn2)CC1
IC50 (second compound 0.0316 µM): 7.12 µM
IC50 (second compound 0.1 µM): 5.23 µM
IC50 (second compound 0.316 µM): < 0.0316 µM
IC50 (second compound 1 µM): < 0.0316 µM
IC50 (second compound 3.16 µM): < 0.0316 µM
IC50 (second compound 10 µM): < 0.0316 µM
viability, T/C [1]: 99.1%
viability, T/C [2]: 93.8%
viability, T/C [3]: 96.2%
viability, T/C [4]: 110%
viability, T/C [5]: 105%
viability, T/C [6]: 28.6%
viability, T/C [7]: 80%
viability, T/C [8]: 74.3%
viability, T/C [9]: 69.3%
viability, T/C [10]: 84%
viability, T/C [11]: 72.7%
viability, T/C [12]: 20.2%
viability, T/C [13]: 1.7%
viability, T/C [14]: 1.6%
viability, T/C [15]: 2.41%
viability, T/C [16]: 3.39%
viability, T/C [17]: 0.47%
viability, T/C [18]: 2.29%
viability, T/C [19]: 0.12%
viability, T/C [20]: 0.14%
viability, T/C [21]: 0.18%
viability, T/C [22]: 0.14%
viability, T/C [23]: 0.16%
viability, T/C [24]: 0.4%
viability, T/C [25]: 0.18%
viability, T/C [26]: 0.15%
viability, T/C [27]: 0.18%
viability, T/C [28]: 0.24%
viability, T/C [29]: 0.61%
viability, T/C [30]: 0.7%
viability, T/C [31]: 0.14%
viability, T/C [32]: 0.13%
viability, T/C [33]: 0.21%
viability, T/C [34]: 0.2%
viability, T/C [35]: 0.15%
viability, T/C [36]: 0.17%

CC1COCCN1c1cc(C2(S(C)(=N)=O)CC2)nc(-c2ccnc3[nH]ccc23)n1 (stereo unspecified) + CN1CCN(c2cc(C(=O)Nc3cc4cc(-c5cnn(C)c5)ccc4cn3)ccn2)CC1
IC50 (second compound 0.0316 µM): 7.24 µM
IC50 (second compound 0.1 µM): 4.52 µM
IC50 (second compound 0.316 µM): < 0.0316 µM
IC50 (second compound 1 µM): < 0.0316 µM
IC50 (second compound 3.16 µM): < 0.0316 µM
IC50 (second compound 10 µM): < 0.0316 µM
viability, T/C [1]: 97.4%
viability, T/C [2]: 105%
viability, T/C [3]: 96.2%
viability, T/C [4]: 106%
viability, T/C [5]: 83.3%
viability, T/C [6]: 37.1%
viability, T/C [7]: 73.4%
viability, T/C [8]: 80.5%
viability, T/C [9]: 91.4%
viability, T/C [10]: 77.5%
viability, T/C [11]: 62.9%
viability, T/C [12]: 21.5%
viability, T/C [13]: 1.53%
viability, T/C [14]: 2.23%
viability, T/C [15]: 1.84%
viability, T/C [16]: 1.74%
viability, T/C [17]: 1.04%
viability, T/C [18]: 0.46%
viability, T/C [19]: 0.13%
viability, T/C [20]: 0.13%
viability, T/C [21]: 0.16%
viability, T/C [22]: 0.1%
viability, T/C [23]: 0.11%
viability, T/C [24]: 0.1%
viability, T/C [25]: 0.17%
viability, T/C [26]: 0.21%
viability, T/C [27]: 0.22%
viability, T/C [28]: 0.2%
viability, T/C [29]: 0.15%
viability, T/C [30]: 0.21%
viability, T/C [31]: 1.56%
viability, T/C [32]: 0.21%
viability, T/C [33]: 0.22%
viability, T/C [34]: 0.31%
viability, T/C [35]: 0.25%
viability, T/C [36]: 0.6%

— PubChem BioAssay AID2060618 (Molecular Pharmacology Branch, DTP, NCI, 2025)
